# Measured values reported in patent US20210238172.
# Like-named read-outs stand apart in the source and are kept apart here.
# Conditions: amide bond, HATU/DIEA, NMP, 2 steps
Substance,"ring closure, yield after HPLC (21-membered ring, 92.4 mM, 80.0 °C)","ring closure, yield after HPLC (22-membered ring, 68.9 mM, 140.0 °C)"
"8-Ethyl-10,18-dimethyl-7,20-dioxo-6,7,8,11,14,15,20,21,28,29,30,31-dodecahydrobenzo[4,5]imidazo[1,2-a]benzo[4,5]imidazo[2,1-p]dipyrazolo[5,1-e:4′,3′-l][1,3,6,15,17]pentaazacyclohenicosine-3,24-dicarboxamide",1.7%,–
"8-ethyl-10,18,30-trimethyl-7,20-dioxo-7,8,11,12,13,14,15,20,21,28,29,30,31,32-tetradecahydro-benzo[4,5]imidazo[2,1-b]benzo[4,5]imidazo[1,2-i]dipyrazolo[5,1-m:4′,3′-t][1,3,6,9,11,14]hexaazacyclodocosine-3,24-dicarboxamide",–,4.56%
